In patent publication US7803546B2, “Method of screening for sensitivity to kinase inhibitor therapy” (Cedars-Sinai Medical Center, priority 2002, dated 2010):

Legend:
[1] = system: IRESSA-resistant (IR) CWR22R tumors; assay: Treatment of IRESSA-resistant (IR) CWR22R tumor lines; settings: after three weeks of treatment, tumor growth curves
[2] = system: non-small cell lung cancer; assay: Clinical response to TKI therapy in non-small cell lung cancer patients, correlated with EMP-1 expression; type: in vivo, human; settings: NSCLC patients; EMP-1 detectable by TAQMAN
Procedure: The gene expression profiles of IR tumors were analyzed by gene chip analysis, using the gene arrays described in Alon et al., Proc. Natl. Acad. Sci. USA, vol. […] Presence of EMP-1 RNA was assessed with TAQMAN from paraffin samples.

[3] = system: androgen-independent (CWR22R) xenograft tumors
Procedure: (§1) A control (i.e., no TKI administered) is graphically depicted as well. This experiment was performed in an androgen-independent prostate xenograft model. […] The daily dosing was at the maximally tolerated dosage in the mice.
as §1

`COc1cc2ncnc(Nc3ccc(F)c(Cl)c3)c2cc1OCCCN1CCOCC1` [IRESSA, Gefitnib] was tested, and the “Response of serially passaged tumors to IRESSA, generations F0-F3” value [1] was “demonstrated sensitivity”, the “Probability of response to therapy in individuals with EMP-1 expression above threshold” value [2] was “less than 10%” and the “Tolerability of weekly dosing” value ([3]; mouse, in vivo) was “well tolerated”. The “Decrease in tumor volume in this tumor model” value ([3]; summary range following IRESSA treatment (covers CWR22 and CWR22R)) was 50-70%.
